Source: ChEMBL document CHEMBL2021887, “Olean-18-ene triterpenoids from Celastraceae species inhibit HIV replication targeting NF-kB and Sp1 dependent transcription” (Eur J Med Chem, 2012)
Active and inactive are the calls of the source. No cut-off for these calls is given here.

Tests used:
[1] = system: Human immunodeficiency virus 1; test: Antiviral activity against X4 tropic HIV1 pNL4.3-Ren infected in human MT2 cells at 10 uM dosed simultaneously with virus infection measured 48 hrs post-infection by recombinant virus assay; assay type: functional; settings: Human immunodeficiency virus 1, pNL4.3-Ren, MT2, 48 h; values are per cent of control
MT2 [2] = test: Cytotoxicity against non-infected human MT2 cells at 10 uM after 48 hrs by CellTiter Glo assay; assay type: cell-based; settings: mt2, 48 h
[3] = system: Human immunodeficiency virus 1; test: Antiviral activity against X4 tropic HIV1 pNL4.3-Ren infected in human MT2 cells dosed simultaneously with virus infection measured 48 hrs post-infection by recombinant virus assay; assay type: functional, organism-based; settings: Human immunodeficiency virus 1, pNL4.3-Ren, MT2, 48 h
[4] = system: Human immunodeficiency virus 1; test: Antiviral activity against luciferase tagged VSV envelope pseudotyped HIV1 infected in human MT2 cells dosed simultaneously with virus infection measured 48 hrs post-infection by recombinant virus assay; assay type: functional, organism-based; settings: Human immunodeficiency virus 1, MT2, 48 h
[5] = Cytotoxicity against non-infected human MT2 cells after 48 hrs by CellTiter Glo assay; assay type: cell-based
[6] = system: Human immunodeficiency virus 1; test: Inhibition of viral transcription in X4 tropic HIV1 pNL4.3-Luc transfected human MT2 cells at 20 uM dosed post transfection and measured 24 hrs post compound dose by luciferase reporter gene assay; assay type: functional; settings: Human immunodeficiency virus 1, pNL4.3-Luc, MT2, 24 h; read-out: INH
MT2 [7] = test: Inhibition of NFkappaB transcription in X4 tropic HIV1 pNL4.3-Luc transfected human MT2 cells at 20 uM dosed post transfection and measured 24 hrs post compound dose by luciferase reporter gene assay; assay type: functional
MT2 [8] = test: Inhibition of Sp1 transcription in X4 tropic HIV1 pNL4.3-Luc transfected human MT2 cells at 20 uM dosed post transfection and measured 24 hrs post compound dose by luciferase reporter gene assay; assay type: functional

SMILES | residual activity at 10 µM [1] [%] | Activity (MT2 [2]) [%] | IC50 [3] [µM] | IC50 [4] [µM] | CC50 at 48 h [5] [µM] | percent inhibition at 20 µM [6] [%] | inhibition (MT2 [7]) | inhibition (MT2 [8])
CC1(C)C(=O)CC[C@]2(C)[C@H]3CC[C@@H]4C5=C[C@](C)(CO)CC[C@]5(C)CC[C@@]4(C)[C@]3(C)CC[C@@H]12 | 50 | – | – | – | – | – | – | –
CC1(C)[C@@H](O)CC[C@]2(C)[C@H]3CC[C@@H]4C5=C[C@](C)(CO)CC[C@]5(C)CC[C@@]4(C)[C@]3(C)CC[C@@H]12 | 17 | 67 | 10.4 | 6.56 | > 100 | < 50 | Active | Active
CC1(C)C=C2[C@H]3CC[C@@H]4[C@@]5(C)CCC(=O)C(C)(C)[C@@H]5[C@H](O)C[C@@]4(C)[C@]3(C)CC[C@@]2(C)CC1 | 28 | 222 | 23.8 | 5.14 | > 100 | < 50 | Active | Active
CC1(C)C=C2[C@H]3C[C@@H](O)[C@@H]4[C@@]5(C)CC[C@H](O)C(C)(C)[C@@H]5CC[C@@]4(C)[C@]3(C)CC[C@@]2(C)CC1 [NIVADIOL] | 121 | – | – | – | – | – | – | –
CC1(C)C=C2[C@H]3CC[C@@H]4[C@@]5(C)CCC(=O)C(C)(C)[C@@H]5CC[C@@]4(C)[C@]3(C)CC[C@@]2(C)CC1 [GERMANICONE] | 84 | – | – | – | – | – | – | –
CC1(C)C=C2[C@H]3C[C@@H](O)[C@@H]4[C@@]5(C)CC[C@H](O)C(C)(C)[C@@H]5CC[C@@]4(C)[C@]3(C)CC[C@@]2(CO)CC1 | 78 | – | – | – | – | – | – | –
CC1(C)C=C2[C@H]3CC[C@@H]4[C@@]5(C)CC[C@H](O)C(C)(C)[C@@H]5[C@H](O)C[C@@]4(C)[C@]3(C)CC[C@@]2(C)CC1 | 1 | 5 | 11.6 | 4.32 | 25.5 | – | – | –
CC1(C)C=C2[C@H]3CC[C@@H]4[C@@]5(C)CC[C@H](O)C(C)(C)[C@@H]5CC[C@@]4(C)[C@]3(C)CC[C@@]2(C)C[C@H]1O | 18 | 69 | 64.4 | 54.3 | > 100 | < 50 | Active | Active
CC(=O)OC[C@@]1(C)C=C2[C@H]3CC[C@@H]4[C@@]5(C)CCC(=O)C(C)(C)[C@@H]5CC[C@@]4(C)[C@]3(C)CC[C@@]2(C)CC1 | 116 | 116 | – | – | – | – | – | –
CC1(C)C=C2[C@H]3CC[C@@H]4[C@@]5(C)CCC(=O)C(C)(C)[C@@H]5CC[C@@]4(C)[C@]3(C)CC[C@@]2(C)CC1=O | 14 | 222 | 4.04 | 3.2 | > 100 | < 50 | Active | Active
CC(=O)O[C@H]1CC[C@]2(C)[C@H]3CC[C@@H]4C5=CC(C)(C)[C@H](OC(C)=O)C[C@]5(C)CC[C@@]4(C)[C@]3(C)CC[C@H]2C1(C)C | 107 | 93 | – | – | – | – | – | –
CC1(C)C(=O)CC[C@]2(C)[C@H]3CC[C@@H]4C5=C[C@](C)(CO)CC[C@]5(C)CC[C@@]4(C)[C@]3(C)C[C@@H](O)[C@@H]12 | 16 | 62 | 65.6 | 20 | > 100 | < 50 | Active | Active
CC1(C)C=C2[C@H]3CC[C@@H]4[C@@]5(C)CCC(=O)C(C)(C)[C@@H]5CC[C@@]4(C)[C@]3(C)CC[C@@]2(C)C[C@H]1O | 22 | 74 | 20 | 20 | > 100 | < 50 | Active | Active
CC(=O)O[C@H]1CC[C@]2(C)[C@H]3CC[C@@H]4C5=CC(C)(C)CC[C@]5(C)CC[C@@]4(C)[C@]3(C)C[C@@H](O)[C@H]2C1(C)C | 102 | 124 | – | – | – | – | – | –
CC1(C)C=C2[C@H]3CC[C@@H]4[C@@]5(C)CC[C@H](O)C(C)(C)[C@@H]5CC[C@@]4(C)[C@]3(C)CC[C@@]2(C)CC1 [GERMANICOL] | 86 | – | – | – | – | – | – | –
